Assay results published in patent publication US11833225B2, “Methods and compositions for efficient gene deletion” (CRISPR Therapeutics AG, priority 2018, dated 2023).
Where “and” joins values, the source holds several entries; their conditions need not be identical. Equal values may be shown once.

Assays:
Assay type in all cases: cell-based, human
CCR5 gene = test: CCR5 deletion frequency by ddPCR in edited CD34+ cells
Description: The C-C chemokine receptor type 5 (CCR5) is a key player in HIV infection due to its major involvement in the infection process. A limited number of people harbor a genomic 32-bp deletion in the CCR5 gene ([…]), leading to expression of a truncated gene product that provides resistance to HIV-1 infection in individuals homozygous for this mutation. Dual gRNAs were designed to target this region of the CCR5 gene. FIG. 8 diagrams the CCR5 gene and the location of TB48 gRNA and TB7 gRNA target sites (bordering a 735 bp deletion).
Human peripheral blood CD34+ cells were cultured and as electroporated with Cas9 and the two gRNAs essentially as described above in Example 1. Nu7441 was delivered to the cells (0, 1.25, 2.5, 5 μM) immediately after electroporation. Deletion efficiency was determined by ddPCR two days after electroporation.
Additional gRNAs were designed to delete larger segments from CCR5, i.e., TB74 and TB 25 for a 5700 bp deletion, and TB48 and TB25 for a 2672 bp deletion (FIG. 10). The gRNAs (and Cas9) were introduced at two dose levels (0.75 or 1.5 μg each) and cells were exposed to 0, 2.5, or 5 μM Nu7441.
Another DNA-PK inhibitor, M3814, was tested to determine whether deletions were increased in its presence. Populations of newly electroporated cells were exposed to four concentrations of M3814 ranging from 0.078 μM to 0.625 μM.

CD34+ hHSPCs [1] = test: Cell proliferation (fold growth) by hemocytometer counting
Method: Cell proliferation was also assessed using a cell counting device (hemocytometer).

HPFH5 [2] = test: Colony forming assay (CFU), clonal editing analysed by ddPCR
Method: The effects of Nu7441 on CRISPR-Cas9 gene editing using the dual gRNA approach (HPFH5-1 and HPFH5-D) was measured using a colony forming assay (CFU). CFU assay is an in vitro cellular assay that measures the proliferation and differentiation potential of human HSPCs. Following electroporation with dual gRNAs/Cas9 and treatment with Nu7441 (2.5 μM), CD34+ hHSPCs were diluted and plated in suspension in the presence of methylcellulose to promote stem cell differentiation. After 14 days, colonies grown from single erythroid-lineage HSPCs were analyzed for gene editing by ddPCR (Table 3).

HPFH5 [3] = test: HPFH5 deletion frequency by droplet digital PCR (ddPCR) in edited CD34+ hHSPCs; settings: increased from 30% without inhibitor, dose-dependent, 0.3125-5 μM; Cas9 + dual gRNAs; 48 hours post electroporation
Method: Mobilized human peripheral blood (mPB) CD34+ cells from three independent human donors were cultured in serum free CellGro® media including 100 ng/ml recombinant human stem cell factor (SCF), 100 ng/ml recombinant human Flt 3-Ligand (FLT3L), and 100 ng/ml Thrombopoietin (TPO). 100,000 cells per condition were electroporated using Lonza Amaxa 4D electroporator without any CRISPR/Cas9 editing components as a negative control (mock electroporation sample), with HPFH5-1+HPFH5-D sgRNAs and Cas9 protein (1+D), or with HPFH5-5+HPFH5-D sgRNAs and Cas9 protein (5+D). The recombinant S. pyogenes Cas9 protein was flanked by two SV40 nuclear localization sequences (NLSs). These experiments were performed using a ribonucleoprotein (RNP) 1:1 weight ratio of gRNA to Cas9.
The deletion frequency was determined by droplet digital PCR (ddPCR) two days after electroporation for each cell population (i.e., mock, 1+D, and 5+D).
Dual gRNAs (HPFH5-1 and HPFH-D, or HPFH5-5 and HPFH-D), as well as Cas9 protein, were also titrated in CD34+ hHSPCs. […]
The deletion frequency was determined by droplet digital PCR (ddPCR) two days after electroporation for each of the cells electroporated with HPFH5-1+HPFH5-D gRNAs, or cells electroporated with HPFH5-5+HPFH5-D gRNAs.

CD34+ hHSPCs [4] = test: Cell viability by Trypan blue
Method: Cell viability was also assessed using Trypan blue, a standard method for detecting hematopoietic stem cell viability.

HPFH5 [5] = test: Tracking of Indels by Decomposition (TIDE), single gRNA indel and MMEJ species
Method: Tracking of Indels by Decomposition (TIDE) was utilized to determine if treatment with Nu7441 results in increased single gRNA indels as a result of NHEJ inhibition. This technology precisely determines the spectrum and frequency of indels and MMEJ species generated by single HPFH5-1 gRNA or HPFH5-D gRNAs in the presence of Nu7441 by comparing the results of standard PCR reactions and Sanger sequencing reactions. Cells were electroporated with 1.5 μg Cas and 1.5 μg HPFH5-D or 1.5 μg HPFH5-1 or no gRNA. Cells were treated with 0, 0.625 μM, 1.25 μM, 2.5 μM, or 5 μM Nu7441.

HPFH5 [6] = test: Single gRNA and Cas9 titration, single guide editing percentage in CD34+ hHSPCs; settings: 48 hour post-electroporation
Description: Single HPFH5-1, HPFH5-5 and HPFH5-D gRNAs, as well as Cas9 protein, were titrated in CD34+ hHSPCs to determine the effects on deletion efficiency.

[7] = HPFH5-1 + HPFH5-D gRNAs/Cas9 + 2.5 μM Nu7441
[8] = HPFH5-1 + HPFH5-D gRNAs/Cas9 + 2.5 μM Nu7441, colonies after 14 days

With `COc1ccc([C@@H](O)c2cc(-c3ncnc4cc(N5CCOCC5)ccc34)c(F)cc2Cl)nn1` [M3814, (S)-(2-chloro-4-fluoro-5-(7-morpholinoquinazolin-4-yl)phenyl)(6-methoxypyridazin-3-yl)methanol] the “percentage of deletions in CCR5” value (CCR5 gene; four concentrations from 0.078 μM to 0.625 μM, TB74+TB25 or TB48+TB25 gRNAs, 48 hours post electroporation) was “increased in a dose-dependent manner” and the “percentage increase in deletions in CCR5 compared with Nu7441” value (CCR5 gene; highest concentration (0.625 μM)) was “about the same percentage increase in deletions as Nu7441”.

With `O=c1cc(N2CCOCC2)oc2c(-c3cccc4c3sc3ccccc34)cccc12` [Nu7441, 8-(4-dibenzothienyl)-2-(4-morpholinyl)-4H-1-benzopyran-4-one] the “cell proliferation (fold growth)” value (CD34+ hHSPCs [1]; concentrations of less than 5 μM, 48 hours post electroporation) was “did not adversely affect cell proliferation”, the cell proliferation (CD34+ hHSPCs [1]; highest concentration (5 μM)) was “reduced” and the “increase of percentage of HPFH5 heterozygotes relative to untreated cells” value (HPFH5 [2]; 2.5 μM Nu7441) was 3 fold. For the same molecule, the “% Alleles edited from clones” value (HPFH5 [2]; [7]) was 40%, the “% Edited cells” value (HPFH5 [2]; [7]) was 63% and the “Bulk editing from ddPCR” value (HPFH5 [2]; [7]) was 43%. For the same molecule, the “% Heterozygotes” value (HPFH5 [2]; [8]) was 46.2%, the “% Homozygotes” value (HPFH5 [2]; [8]) was 17.3% and the “% WT” value (HPFH5 [2]; [8]) was 36.5%. The “# Edited alleles” value (HPFH5 [2]; HPFH5-1 + HPFH5-D gRNAs/Cas9 + 2.5 μM Nu7441, of 104 total alleles (52 clones)) was 42, the “increase of number of alleles edited from clones” value (HPFH5 [2]; in the presence of Nu7441 (2.5 μM)) was 2 fold and the “HPFH5 deletion efficiency reached with Nu7441” value (HPFH5 [3]) was 45% and 40%. The cell viability (CD34+ hHSPCs [4]; CCR5 editing with TB48 + TB7 gRNAs, highest concentration (5 μM)) was “decreased slightly”, the cell viability (CD34+ hHSPCs [4]; concentrations of less than 5 μM, 48 hours post electroporation, HPFH5 dual gRNAs) was “did not adversely affect cell viability” and the cell viability (CD34+ hHSPCs [4]; highest dose 5 μM, HPFH5 dual gRNAs) was “slightly reduced”. The “frequency of deletion in CCR5” value (CCR5 gene; TB48 + TB7 gRNAs (735 bp deletion), 0, 1.25, 2.5, 5 μM, two days after electroporation) was “increased the frequency of deletion in CCR5 in a dose-dependent manner”, the “increase of percent of deletions in CCR5” value (CCR5 gene; TB48 + TB7 gRNAs, highest dose (5 μM)) was “more than two-fold” and the “increase of the percent of deletions in CCR5” value (CCR5 gene; TB74 + TB25 (5700 bp) and TB48 + TB25 (2672 bp) gRNAs, 0.75 or 1.5 μg each, 2.5 or 5 μM, all conditions) was 20-70%. For the same molecule, the “potential microhomology-mediated end joining (MMEJ) species” value (HPFH5 [5]; Cas9 and HPFH5 gRNA) was “increased”, the “effect on single guide editing (indel frequency)” value (HPFH5 [5]; HPFH5-1 gRNA 1.5 μg + Cas9 1.5 μg, 0.625-5 μM) was “not major effects” and the “effect on indel frequency” value (HPFH5 [5]; HPFH5-D gRNA 1.5 μg + Cas9 1.5 μg, higher concentrations) was “increased indel frequency”. For the same molecule, the “number of wild-type sequences in HPFH5 relative to untreated cells” value (HPFH5 [5]; HPFH5-D gRNA, 5 μM) was “decrease” and the “percentage of 10-15 base pair deletions relative to untreated cells” value (HPFH5 [5]; HPFH5-D gRNA, 5 μM) was “increase”.

B1: HPFH5-D: 5′ gRNA targeting the HPFH5 locus, SEQ ID NO: 6, used with Cas9 protein (nucleic acid)
guide: CUGUUGGUUUCAGAGCAGGUGUUUUAGAGCUAGAAAUAGCAAGUUAAAAUAAGGCUAGUCCGUUAUCAACUUGAAAAAGUGGCACCGAGUCGGUGCUUUU
modifications: listed as RNA, chemistry not given here
With B1 the “% Single Guide Editing” value (HPFH5 [6]; gRNA 1 μg, Cas9 1 μg) was 20.8%, the “% Single Guide Editing” value (HPFH5 [6]; gRNA 2 μg, Cas9 2 μg) was 61.4% and the “% Single Guide Editing” value (HPFH5 [6]; gRNA 3 μg, Cas9 3 μg) was 70.9%. For the same molecule, the “% Single Guide Editing” value (HPFH5 [6]; gRNA 4 μg, Cas9 4 μg) was 80.4%.

B2: HPFH5-5: 3′ gRNA targeting the HPFH5 locus, SEQ ID NO: 4, used with Cas9 protein (nucleic acid)
guide: CUCCCCCACUCACAGUGACCGUUUUAGAGCUAGAAAUAGCAAGUUAAAAUAAGGCUAGUCCGUUAUCAACUUGAAAAAGUGGCACCGAGUCGGUGCUUUU
modifications: listed as RNA, chemistry not given here
With B2 the “% Single Guide Editing” value (HPFH5 [6]; gRNA 1 μg, Cas9 1 μg) was 40.5%, the “% Single Guide Editing” value (HPFH5 [6]; gRNA 2 μg, Cas9 2 μg) was 56.5% and the “% Single Guide Editing” value (HPFH5 [6]; gRNA 3 μg, Cas9 3 μg) was 60.3%. For the same molecule, the “% Single Guide Editing” value (HPFH5 [6]; gRNA 4 μg, Cas9 4 μg) was 66.3%.

B3: HPFH5-1: 3′ gRNA targeting the HPFH5 locus, SEQ ID NO: 2, used with Cas9 protein (nucleic acid)
guide: AUUUUUCUUAUUCAAUACCUGUUUUAGAGCUAGAAAUAGCAAGUUAAAAUAAGGCUAGUCCGUUAUCAACUUGAAAAAGUGGCACCGAGUCGGUGCUUUU
modifications: listed as RNA, chemistry not given here
B3 was tested, and the “% Single Guide Editing” value (HPFH5 [6]; gRNA 1 μg, Cas9 1 μg) was 35.6%, the “% Single Guide Editing” value (HPFH5 [6]; gRNA 2 μg, Cas9 2 μg) was 62.9% and the “% Single Guide Editing” value (HPFH5 [6]; gRNA 3 μg, Cas9 3 μg) was 72.1%. The “% Single Guide Editing” value (HPFH5 [6]; gRNA 4 μg, Cas9 4 μg) was 75.7%.
